“And” between values parts separate entries of the source, which are not always exact repeats. Identical values can stand only once.
System: cAMP levels in FRT cells
Assay: Tropix assay for measurement of cAMP in FRT cells
Assay type: cell-based, rat
Conditions: n=4; for cAMP generated, average % of cAMP produced by 20 μM of forskolin: 15 minutes incubation
Procedure: In the following example, the effect on cAMP levels by three structurally similar compounds from Table 1 were determined using the cAMP levels from 20 μM forskolin as the normalized reference measure.
The level of cAMP in FRT cells following 0.5 μM forskolin or test compound application was determined using a commercially available chemiluminiscent immunoassay system for mammalian cells called Tropix® (Applied Biosystems, Bedford, Mass.). Briefly, FRT cells were incubated for 15 minutes with a test compound in the presence and absence of 0.5 μM forskolin. The compounds were aspirated and the cells were then lysed and transferred along with the lysis buffer to a 96-well Tropix® ELISA plate. A cAMP-Alk Phos conjugate is then added to the assay plate, followed by the addition of cAMP anti-body. After several wash and aspiration steps, Sapphire blue II solution is added and the […], and the cAMP concentrations were determined using a cAMP standard curve that was present in each plate.

[1] = compound in the presence of 0.5 μM forskolin, FRT cells

## COc1ccc(C2(CNC(=O)c3cc4ccccc4o3)CCCC2)cc1OC [Compound 7, N-((1-(3,4-dimethoxyphenyl)-cyclopentyl)methyl)benzofuran-2-carboxamide]
Compound alone, FRT cells
  cAMP generated, average % of cAMP produced by 20 μM of forskolin: 40.3±3.5%
[1]
  cAMP generated, average % of cAMP produced by 20 μM of forskolin: 92.3±2.7%

## COc1ccc(C(C)(C)CNC(=O)c2cc3ccccc3o2)cc1OC [Compound 34, N-(2-(3,4-dimethoxyphenyl)-2-methylpropyl)benzofuran-2-carboxamide]
Compound alone, FRT cells
  cAMP generated, average % of cAMP produced by 20 μM of forskolin: 24.4±1.1%
Compound alone
  change of cAMP compared with the DMSO control: not a significant increase
[1]
  cAMP generated, average % of cAMP produced by 20 μM of forskolin: 61.5±1.8%
Compound in the presence of 0.5 μM forskolin
  change of cAMP compared with the 0.5 μM forskolin control: significant increase

## C=C[C@@]1(C)CC(=O)[C@]2(O)[C@@]3(C)[C@@H](O)CCC(C)(C)[C@@H]3[C@H](O)[C@H](OC(C)=O)[C@@]2(C)O1 [forskolin, reference compound]
0.5 μM forskolin alone, FRT cells
  cAMP of the 0.5 μM forskolin control, % of 20 μM forskolin: 45.9±3.0% and 32.2±3.2%

Source: patent publication US7598412B2, “Modulators of ATP-binding cassette transporters” (Vertex Pharmaceuticals Incorporated, priority 2003, dated 2009)
